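Compound exposure: 48 hours, 5 concentrations, 96-well plates. Here, GI50 denotes the concentration required for 50% inhibition of growth.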 Active and inactive are the calls of the source. No stated cut-off is given here; in the data, active = GI50 up to about 1.1 µM and inactive = higher.
Experiments:
Assay in all cases: NCI-60 cell line screen, 48 h
[1] = test system: MDA-MB-231
[2] = test system: SNB-75
[3] = test system: SF-295
[4] = test system: DU-145
[5] = test system: TK-10
[6] = test system: LOX IMVI
[7] = test system: Malme-3M
[8] = test system: HOP-62
[9] = test system: HCT-15
[10] = test system: 786-0
[11] = test system: T47D
[12] = test system: MCF7
[13] = test system: U-251
[14] = test system: NCI-H226
[15] = test system: BT-549
[16] = test system: HL-60
[17] = test system: A549
[18] = test system: SK-MEL-5
[19] = test system: MDA-N

Structure (SMILES)	GI50 [1]	GI50 [2]	GI50 [3]	GI50 [4]	GI50 [5]	GI50 [6]	GI50 [7]	GI50 [8]	GI50 [9] [µM]	GI50 [10]	GI50 [11]	GI50 [12]	GI50 [13]	GI50 [14]	GI50 [15]	GI50 [16]	GI50 [17]	GI50 [18]	GI50 [19]
CC1=C(O)C(=O)c2ccccc2C1=O	> 100 µM (inactive)	44.3 µM (inactive)	49.4 µM (inactive)	64.9 µM (inactive)	24.3 µM (inactive)	70.6 µM (inactive)	9.02 µM (inactive)	> 100 µM (inactive)	27	71.9 µM (inactive)	> 100 µM (inactive)	67.6 µM (inactive)	34 µM (inactive)	> 100 µM (inactive)	18.6 µM (inactive)	6.82 µM (inactive)	> 100 µM (inactive)	4.45 µM (inactive)	46.7 µM (inactive)
COc1cc(C[S+]([O-])c2ccc(O)cc2)cc(OC)c1OC (stereo unspecified)	> 100 µM (inactive)	> 100 µM (inactive)	> 100 µM (inactive)	> 100 µM (inactive)	> 100 µM (inactive)	> 100 µM (inactive)	> 100 µM (inactive)	> 100 µM (inactive)	> 100	> 100 µM (inactive)	> 100 µM (inactive)	> 100 µM (inactive)	> 100 µM (inactive)	> 100 µM (inactive)	> 100 µM (inactive)	> 100 µM (inactive)	> 100 µM (inactive)	> 100 µM (inactive)	> 100 µM (inactive)
NCC1CCN(c2nc3ccccc3c3c2CCCC3)CC1	5.57 µM (inactive)	4.21 µM (inactive)	12.9 µM (inactive)	13.1 µM (inactive)	12.9 µM (inactive)	4.81 µM (inactive)	13.2 µM (inactive)	14.7 µM (inactive)	4.16	4.23 µM (inactive)	2.28 µM (inactive)	4.86 µM (inactive)	5.35 µM (inactive)	16.7 µM (inactive)	14.2 µM (inactive)	2.84 µM (inactive)	11.2 µM (inactive)	2.96 µM (inactive)	2.71 µM (inactive)
O=[N+]([O-])c1ccc2sc(/C=N/c3cnccn3)cc2c1	23.7 µM (inactive)	0.861 µM (active)	35.4 µM (inactive)	21.5 µM (inactive)	30.3 µM (inactive)	22.8 µM (inactive)	37 µM (inactive)	29.1 µM (inactive)	34.4	33.5 µM (inactive)	0.714 µM (active)	5.74 µM (inactive)	20.9 µM (inactive)	–	85.7 µM (inactive)	14.2 µM (inactive)	64.9 µM (inactive)	45.8 µM (inactive)	24.1 µM (inactive)
C(=C\c1ccccc1)/Cn1nc(-c2ccccc2)nc1-c1cnccn1	> 100 µM (inactive)	18.7 µM (inactive)	> 100 µM (inactive)	> 100 µM (inactive)	> 100 µM (inactive)	> 100 µM (inactive)	–	> 100 µM (inactive)	> 100	> 100 µM (inactive)	> 100 µM (inactive)	> 100 µM (inactive)	> 100 µM (inactive)	–	> 100 µM (inactive)	> 100 µM (inactive)	> 100 µM (inactive)	29.5 µM (inactive)	> 100 µM (inactive)
COC(=O)C1(C)CCCC2(C)c3cc(OC)ccc3C(=O)C(Br)C12 (stereo unspecified)	3.35 µM (inactive)	–	> 10 µM (inactive)	> 10 µM (inactive)	> 10 µM (inactive)	> 10 µM (inactive)	2.72 µM (inactive)	> 10 µM (inactive)	> 10	1.84 µM (inactive)	> 10 µM (inactive)	1.95 µM (inactive)	> 10 µM (inactive)	> 10 µM (inactive)	> 10 µM (inactive)	2.14 µM (inactive)	> 10 µM (inactive)	> 10 µM (inactive)	3.81 µM (inactive)
CCCC(=O)NC1=C(NCC)C(=O)c2ccccc2C1=O	83.4 µM (inactive)	> 100 µM (inactive)	> 100 µM (inactive)	> 100 µM (inactive)	> 100 µM (inactive)	–	38.5 µM (inactive)	> 100 µM (inactive)	39.8	> 100 µM (inactive)	> 100 µM (inactive)	63.5 µM (inactive)	> 100 µM (inactive)	> 100 µM (inactive)	> 100 µM (inactive)	40.5 µM (inactive)	> 100 µM (inactive)	74.1 µM (inactive)	20.8 µM (inactive)
Cc1cc(S(=O)(=O)Nc2nc(Nc3ccc(Cl)cc3)n[nH]2)c(S)cc1Cl	> 100 µM (inactive)	> 100 µM (inactive)	91.2 µM (inactive)	> 100 µM (inactive)	> 100 µM (inactive)	75.7 µM (inactive)	> 100 µM (inactive)	52.5 µM (inactive)	4.53	> 100 µM (inactive)	> 100 µM (inactive)	> 100 µM (inactive)	27.9 µM (inactive)	> 100 µM (inactive)	> 100 µM (inactive)	> 100 µM (inactive)	> 100 µM (inactive)	> 100 µM (inactive)	55.2 µM (inactive)
O=C(N/N=C(COc1ccc([N+](=O)[O-])cc1)\N=C\c1ccncc1)c1ccncc1	> 100 µM (inactive)	94.6 µM (inactive)	> 100 µM (inactive)	> 100 µM (inactive)	> 100 µM (inactive)	0.564 µM (active)	> 100 µM (inactive)	> 100 µM (inactive)	> 100	> 100 µM (inactive)	> 100 µM (inactive)	> 100 µM (inactive)	> 100 µM (inactive)	> 100 µM (inactive)	> 100 µM (inactive)	> 100 µM (inactive)	> 100 µM (inactive)	–	> 100 µM (inactive)
COC(=O)Cc1c2n(c3ccccc13)C(=O)N1c3ccccc3C(CC(=O)OC)C21 (stereo unspecified)	17.3 µM (inactive)	7.45 µM (inactive)	18.8 µM (inactive)	> 100 µM (inactive)	14.9 µM (inactive)	63.5 µM (inactive)	81.3 µM (inactive)	17.4 µM (inactive)	69	13.1 µM (inactive)	76 µM (inactive)	59.3 µM (inactive)	28.3 µM (inactive)	> 100 µM (inactive)	25.5 µM (inactive)	3.89 µM (inactive)	34.2 µM (inactive)	56.2 µM (inactive)	> 100 µM (inactive)
CC(=O)Nc1ccc(CNc2cc(=O)n(C)c(=O)[nH]2)cc1	> 100 µM (inactive)	> 100 µM (inactive)	> 100 µM (inactive)	> 100 µM (inactive)	> 100 µM (inactive)	> 100 µM (inactive)	> 100 µM (inactive)	> 100 µM (inactive)	> 100	> 100 µM (inactive)	> 100 µM (inactive)	> 100 µM (inactive)	> 100 µM (inactive)	> 100 µM (inactive)	> 100 µM (inactive)	> 100 µM (inactive)	> 100 µM (inactive)	> 100 µM (inactive)	> 100 µM (inactive)
O=[N+]([O-])c1c(F)c(F)c2c(c1F)N(CCCCCl)c1ccccc1S2	7.89 µM (inactive)	6.46 µM (inactive)	16.6 µM (inactive)	13.2 µM (inactive)	16.9 µM (inactive)	1.58 µM (inactive)	16.6 µM (inactive)	14.3 µM (inactive)	1.6	9.02 µM (inactive)	12.4 µM (inactive)	3.61 µM (inactive)	12.7 µM (inactive)	17.7 µM (inactive)	14.6 µM (inactive)	2.44 µM (inactive)	14.4 µM (inactive)	12.2 µM (inactive)	15 µM (inactive)
COc1ccc(/C=C2/C(=O)C(c3ccccc3)N(c3ccccc3)C2=O)cc1OC (stereo unspecified)	> 10 µM (inactive)	–	> 10 µM (inactive)	> 10 µM (inactive)	> 10 µM (inactive)	> 10 µM (inactive)	1.42 µM (inactive)	> 10 µM (inactive)	> 10	> 10 µM (inactive)	> 10 µM (inactive)	> 10 µM (inactive)	> 10 µM (inactive)	> 10 µM (inactive)	> 10 µM (inactive)	> 10 µM (inactive)	> 10 µM (inactive)	0.168 µM (active)	> 10 µM (inactive)
Cc1ccc(C(=O)/C=C2\Nc3ccccc3S\C2=N\CS(=O)(=O)c2ccc(C)cc2)cc1	> 10 µM (inactive)	> 10 µM (inactive)	> 10 µM (inactive)	> 10 µM (inactive)	> 10 µM (inactive)	> 10 µM (inactive)	> 10 µM (inactive)	7.8 µM (inactive)	> 10	> 10 µM (inactive)	8.2 µM (inactive)	4.3 µM (inactive)	> 10 µM (inactive)	–	> 10 µM (inactive)	7.41 µM (inactive)	> 10 µM (inactive)	> 10 µM (inactive)	> 10 µM (inactive)
CC(C)C1CC(CO)(CNc2cc(Cl)nc(N)n2)C1 (stereo unspecified)	94 µM (inactive)	–	6.22 µM (inactive)	> 100 µM (inactive)	> 100 µM (inactive)	10.4 µM (inactive)	39.2 µM (inactive)	> 100 µM (inactive)	22.5	> 100 µM (inactive)	0.805 µM (active)	15 µM (inactive)	44 µM (inactive)	13.5 µM (inactive)	65.8 µM (inactive)	18.1 µM (inactive)	39.2 µM (inactive)	3.55 µM (inactive)	57.7 µM (inactive)
